# In patent US20080194641A1, “Pesticidal Mixtures” (BASF Aktiengesellschaft, priority 2005, published 2008):
# Legend:
# Colorado potato beetle = assay: Leaf-dip bioassay on potato leaves, larval mortality; assay type: in vivo; details: Leptinotarsa decemlineata, 120 h
# Procedure: (§1) Potato plants for Colorado potato beetle and two-leaf cotton plants for tobacco budworm were utilized for bioassays. Excised plant leaves were dipped into 1:1 acetone/water dilutions of the active compounds. After the leaves had dried, they were individually placed onto water-moistened filter paper on the bottoms of Petri dishes. Each dish was infested with 5-7 larvae and covered with a lid. Each treatment dilution was replicated 4 times. Test dishes were held at approximately 27° C. and 60% humidity. Numbers of live and morbid larvae were assessed in each dish at 5 days after treatment application, and percent mortality was calculated.
# (§2) To determine if an insecticidal mixture was synergistic, Limpel's formula was used:
# (§3) E=Expected % mortality of the mixture X=% mortality of compound X, as measured independently Y=% mortality of compound Y, as measured independently
# (§4) Synergism was evident if the % observed mortality for the mixture was greater than the % expected mortality.
# tobacco budworm = assay: Leaf-dip bioassay on cotton leaves, larval mortality; assay type: in vivo; details: Heliothis virescens, 120 h, read-out: % Mortality of Tobacco Budworm
# Procedure: as §1, §2, §3, §4
# [1] = read-out: % Mortality of Colorado Potato Beetle
compound,measurement,setting,value
"CCN/C(=N\Nc1c(Cl)cc(C(F)(F)F)cc1Cl)C(C)(C)C [I-1, N-ethyl-2,2-dimethylpropionamide-2-(2,6-dichloro-α,α,α-trifluoro-p-tolyl)-hydrazone]",mortality at 100 ppm,"Colorado potato beetle; dose rate 100 ppm, 5 days after treatment",0%
same,mortality at 300 ppm,"Colorado potato beetle; dose rate 300 ppm, 5 days after treatment",20.8%
same,mortality at 100 ppm,tobacco budworm,0%
same,mortality at 300 ppm,tobacco budworm,16%
"CCN/C(=N\Nc1c(Cl)cc(C(F)(F)F)cc1Cl)C1(C)CC1(Cl)Cl (stereo not drawn) [I-2, N-Ethyl-2,2-dichloro-1-methylcyclopropane-carboxamide-2-(2,6-dichloro-α,α,α-tri-fluoro-p-tolyl)hydrazone]",mortality at 30 ppm,"Colorado potato beetle; dose rate 30 ppm, 5 days after treatment",6.3%
same,mortality at 60 ppm,"Colorado potato beetle; dose rate 60 ppm, 5 days after treatment",39.6%
same,mortality at 60 ppm,tobacco budworm,5.4%
same,mortality at 100 ppm,tobacco budworm,12.5%
"CC1(C)C(C=C(Cl)Cl)C1C(=O)OC(C#N)c1cccc(Oc2ccccc2)c1 (stereo not drawn) [alpha-cypermethrin, reference compound]",mortality at 0.03 ppm,Colorado potato beetle; [1],0%
same,mortality at 0.06 ppm,Colorado potato beetle; [1],4.2%
same,mortality at 0.03 ppm,tobacco budworm,0%
same,mortality at 0.06 ppm,tobacco budworm,8.9%
"O=[N+]([O-])NC1=NCCN1Cc1ccc(Cl)nc1 [imidacloprid, reference compound]",mortality at 0.06 ppm,Colorado potato beetle; [1],0%
